Test results taken from patent US12414952B2 (Merck Sharp & Dohme LLC, priority 2018, dated 2025).
Blank lines part the entries; values can stand above or below the molecule they belong to.

Columns and labels:
[1] = biological target: human A2a adenosine receptor (Homo sapiens (Human), UniProt P29274); assay: A2a binding affinity using radioligand binding, Method (A); conditions: Method (A): [3H]SCH58261 filtration binding
From the text: The A2a receptor affinity binding assay measured the amount of binding of a tritiated ligand with high affinity for the A2a adenosine receptor to membranes made from HEK293 or CHO cells recombinantly expressing the human A2a adenosine receptor, in the presence of varying concentrations of a compound of the invention. The data were generated using either filtration binding or a homogenous scintillation proximity assay (SPA).
Method (A): Measurement of A2a Binding Affinity Using Radioligand Binding
148 μL (5 μg/mL) membranes (Perkin Elmer, Cat. No. RBHA2aM400UA) and 2 μL compounds of the invention to be tested (test compound) were transferred to individual wells of a 96-well polypropylene assay plate and incubated for 15 to 30 min at room temperature. [^3H] SCH58261 ((7-(2-phenylethyl)-5-amino-2-(2-furyl)-pyrazolo-[4,3-e]-1,2,4-triazolo[1,5-c]pyrimidine)) was diluted in assay buffer (50 mM Tris pH 7.4, 10 mM MgCl2, 0.005% Tween20) to a concentration of 4 nM and 50 μL transferred to each well of the assay plate. […] The assay plate was incubated at room temperature for 60 min with agitation. […] Filtering was achieved by aspirating the contents of the assay plate for 5 sec, then washing and aspirating the contents three times with ice-cooled wash buffer (50 mM Tris-HCl pH 7.4, 150 mM NaCl) and allowing the vacuum manifold to dry the plate for […]. The filter plate was incubated for at least 1 h at 55° C. and allowed to dry. The bottom of the filter plate was sealed with backing tape. […] The plate was incubated for at least 20 min, and then the amount of radioactivity remaining in each well was determined using a TopCount® (Perkin Elmer) scintillation counter. After normalization to total and non-specific binding, the percent effect at each compound concentration was calculated. The plot of percent effect versus the log of compound concentration was analyzed electronically using a 4-parameter logistic fit based on the Levenberg-Marquardt algorithm to generate IC50 values.

[2] = biological target: human A2b adenosine receptor (Homo sapiens (Human), UniProt P29275); assay: A2b binding affinity, radioligand filtration binding assay; conditions: tritiated proprietary A2b antagonist, HEK293 membranes
Sequence of human A2b adenosine receptor (P29275 whole entry): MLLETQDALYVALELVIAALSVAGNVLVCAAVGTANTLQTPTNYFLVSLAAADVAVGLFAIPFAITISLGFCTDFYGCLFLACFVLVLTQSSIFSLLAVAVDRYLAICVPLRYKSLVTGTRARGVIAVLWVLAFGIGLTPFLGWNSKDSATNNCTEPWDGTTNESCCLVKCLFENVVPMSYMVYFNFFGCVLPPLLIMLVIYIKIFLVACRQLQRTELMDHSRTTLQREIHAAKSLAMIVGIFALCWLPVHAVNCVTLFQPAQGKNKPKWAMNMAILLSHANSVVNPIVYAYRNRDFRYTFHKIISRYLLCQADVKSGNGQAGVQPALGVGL
Method: Measurement of A2b Binding Affinity
The reported affinity of the compounds of the invention for the human A2b adenosine receptor was determined experimentally using a radioligand filtration binding assay. This assay measures the amount of binding of a tritiated proprietary A2b receptor antagonist, in the presence and absence of a compound of the invention, to membranes made from HEK293 cells recombinantly expressing the human A2b adenosine receptor (Perkin Elmer, Cat. No. ES-013-C).
The filter plate was incubated for at least 1 h at 55° C. and allowed to dry. The bottom of the filter plate was then sealed with backing tape. […] The plates were then incubated for at least 20 min, and then the amount of radioactivity remaining in each well was determined using a TopCount® (Perkin Elmer) scintillation counter. After normalization to total and non-specific binding, the percent effect at each compound concentration was calculated. The plot of percent effect versus the log of compound concentration was analyzed electronically using a 4-parameter logistic fit based on the Levenberg-Marquardt algorithm to generate IC50 values.

Sequence of human A2a adenosine receptor (P29274 whole entry): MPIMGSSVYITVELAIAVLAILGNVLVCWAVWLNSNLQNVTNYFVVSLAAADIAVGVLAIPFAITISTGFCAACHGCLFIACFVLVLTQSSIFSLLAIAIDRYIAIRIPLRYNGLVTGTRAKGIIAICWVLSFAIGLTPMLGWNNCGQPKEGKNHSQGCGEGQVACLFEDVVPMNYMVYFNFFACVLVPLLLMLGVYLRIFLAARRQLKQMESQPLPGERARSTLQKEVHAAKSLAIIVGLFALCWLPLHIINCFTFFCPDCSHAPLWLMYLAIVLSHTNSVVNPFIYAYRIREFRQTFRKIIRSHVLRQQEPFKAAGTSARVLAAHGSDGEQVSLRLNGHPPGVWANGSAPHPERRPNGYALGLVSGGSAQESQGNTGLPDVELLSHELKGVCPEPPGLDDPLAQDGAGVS

Compound: Cc1c(-c2ccc(F)c(F)c2F)nc(N)c2nc(Cc3ccccc3)nn12 [Example 3.40]
IC50 [1]: 280 nM
IC50 [2]: 315 nM

Compound: COc1c(F)cc(F)cc1-c1cc2nc(CCN3CCn4c(cnc4C(C)C)C3)nn2c(N)n1 [Example 2.9]
IC50 [1]: 636 nM
IC50 [2]: 248 nM

Compound: Cc1c(-c2cccc(F)c2F)nc(N)c2nc(Cc3ccccc3)nn12 [Example 3.29]
IC50 [1]: 4 nM
IC50 [2]: 39.4 nM

Compound: CC(C)c1ncc2n1CCN(CCc1nc3cc(-c4cc(F)ccc4Cl)nc(N)n3n1)C2 [Example 2.12]
IC50 [1]: 440 nM
IC50 [2]: 215 nM

Compound: Cc1c(-c2cc(F)c(F)cc2F)nc(N)c2nc(Cc3ccccc3)nn12 [Example 3.34]
IC50 [1]: 32.2 nM
IC50 [2]: 95.8 nM

Compound: CC(C)n1nnc2c1CCN(CCc1nc3cc(-c4cccc(C#N)c4F)nc(N)n3n1)C2 [Example 2.24]
IC50 [1]: 0.9 nM
IC50 [2]: 73.6 nM

Compound: COc1cc(F)cc(-c2nc(N)c3nc(Cc4ccccc4)nn3c2C)c1 [Example 3.31]
IC50 [1]: 6.2 nM
IC50 [2]: 134 nM

Compound: Cc1c(-c2ncco2)nc(N)n2nc(CCN3Cc4nnn(C(C)C)c4C(C)C3)nc12 (single isomer, unassigned) [Example 17.8-1, (R or S)-2-(2-(1-isopropyl-7-methyl-1,4,6,7-tetrahydro-5H-[1,2,3]triazolo[4,5-c]pyridin-5-yl)ethyl)-8-methyl-7-(oxazol-2-yl)-[1,2,4]triazolo[1,5-c]pyrimidin-5-amine]
IC50 [1]: 0.7 nM
IC50 [2]: 1680 nM

Compound: Cc1c(-c2cccc(F)c2Cl)nc(N)c2nc(Cc3ccccc3)nn12 [Example 3.41]
IC50 [1]: 289 nM
IC50 [2]: 747 nM

Compound: Cc1c(-c2cc(F)ccc2Cl)nc(N)c2nc(Cc3ccccc3)nn12 [Example 3.38]
IC50 [1]: 97.6 nM
IC50 [2]: 85.7 nM

Compound: CC(C)c1ncc2n1CCN(CCc1nc3cc(-c4cccc(F)c4)nc(N)n3n1)C2 [Example 2.13]
IC50 [1]: 35.4 nM
IC50 [2]: 95.5 nM

Compound: Cc1c(-c2ncco2)nc(N)n2nc(CCN3CCc4c(nnn4C(C)C)C3)nc12 [Example 1.15]
IC50 [1]: 0.1 nM
IC50 [2]: 402 nM

Compound: Cc1c(-c2ccc(C#N)c(F)c2)nc(N)c2nc(Cc3ccccc3)nn12 [Example 3.42]
IC50 [1]: 499 nM
IC50 [2]: 1730 nM

Compound: Cc1c(-c2ncco2)nc(N)c2nc(Cc3cccc4c3ncn4CC(C)(C)O)nn12 [Example 4.9]
IC50 [1]: 0.2 nM
IC50 [2]: 1.2 nM

Compound: Cc1c(-c2ncco2)nc(N)n2nc(CCN3CCc4c(nnn4CC(F)(F)F)C3)nc12 [Example 1.17]
IC50 [1]: 1.3 nM
IC50 [2]: 35.2 nM

Compound: Cc1c(-c2cccc(Cl)c2F)nc(N)c2nc(Cc3ccccc3)nn12 [Example 3.30]
IC50 [1]: 7.6 nM
IC50 [2]: 46.2 nM

Compound: Cc1c(-c2ncco2)nc(N)n2nc(CCN3CCn4c(cnc4C4CC4)C3)nc12 [Example 1.12]
IC50 [1]: 4.8 nM
IC50 [2]: 218 nM

Compound: Cc1c(-c2ncco2)nc(N)n2nc(CCN3CCc4nn(C5CCC5)cc4C3)nc12 [Example 1.14]
IC50 [1]: 6.7 nM
IC50 [2]: 399 nM

Compound: Cc1c(-c2cc(F)ccc2F)nc(N)c2nc(Cc3cccc4c3ncn4CC(F)F)nn12 [Example 4.5]
IC50 [1]: 23.8 nM
IC50 [2]: 31.8 nM

Further lines, results first:

IC50 [1]: 12.1 nM
IC50 [2]: 3.5 nM
Compound: Cc1c(-c2ncco2)nc(N)n2nc(Cc3ccc([C@H]4C[C@](C)(O)C4)cc3)nc12 [Example 5.3, (1r,3r)-3-(4-((5-amino-8-methyl-7-(oxazol-2-yl)-[1,2,4]triazolo[1,5-c]pyrimidin-2-yl)methyl)phenyl)-1-methylcyclobutanol]

IC50 [1]: 4.5 nM
IC50 [2]: 48.4 nM
Compound: Cc1c(-c2ncco2)nc(N)n2nc(CNCc3ccc(C(F)(F)F)cc3)nc12 [Example 10.2, 8-methyl-7-(oxazol-2-yl)-2-(((4-(trifluoromethyl)benzyl)amino)methyl)-[1,2,4]triazolo[1,5-c]pyrimidin-5-amine]

IC50 [1]: 16.3 nM
IC50 [2]: 677 nM
Compound: Cc1cc2n(n1)CCN(CCc1nc3c(C)c(-c4ncco4)nc(N)n3n1)C2 [Example 17.6, 8-methyl-2-(2-(2-methyl-6,7-dihydropyrazolo[1,5-a]pyrazin-5(4H)-yl)ethyl)-7-(oxazol-2-yl)-[1,2,4]triazolo[1,5-c]pyrimidin-5-amine]

IC50 [1]: 7.3 nM
IC50 [2]: 151 nM
Compound: Cc1c(-c2ncco2)nc(N)n2nc(CCS(=O)(=O)C3CC3)nc12 [Example 15.3, 2-(2-(cyclopropylsulfonyl)ethyl)-8-methyl-7-(oxazol-2-yl)-[1,2,4]triazolo[1,5-c]pyrimidin-5-amine]

IC50 [1]: 0.7 nM
IC50 [2]: 8.1 nM
Compound: Cc1c(-c2ncco2)nc(N)n2nc(CCN3CCc4c(nnn4C4CCCC4)C3)nc12 [Example 17.13, 2-(2-(1-cyclopentyl-1,4,6,7-tetrahydro-5H-[1,2,3]triazolo[4,5-c]pyridin-5-yl)ethyl)-8-methyl-7-(oxazol-2-yl)-[1,2,4]triazolo[1,5-c]pyrimidin-5-amine]

IC50 [1]: 1.3 nM
IC50 [2]: 29.9 nM
Compound: Cc1cccnc1Cc1nc2c(N)nc(-c3ncco3)c(C)n2n1 [Example 8.3]

IC50 [1]: 0.7 nM
IC50 [2]: 1990 nM
Compound: Cc1c(-c2ncco2)nc(N)n2nc(CN(Cc3ccc(C(F)(F)F)cc3)CC(F)F)nc12 [Example 12.3]

IC50 [1]: 0.9 nM
IC50 [2]: 52.8 nM
Compound: CC(C)n1nnc2c1CCN(CCc1nc3c(C(F)(F)F)c(-c4cccc(F)c4)nc(N)n3n1)C2 [Example 23.7, 7-(3-fluorophenyl)-2-(2-(1-isopropyl-1,4,6,7-tetrahydro-5H-[1,2,3]triazolo[4,5-c]pyridin-5-yl)ethyl)-8-(trifluoromethyl)-[1,2,4]triazolo[1,5-c]pyrimidin-5-amine]

IC50 [1]: 1.2 nM
IC50 [2]: 1100 nM
Compound: Cc1c(-c2ncco2)nc(N)n2nc(CCN3CCCC(F)(F)C3)nc12 [Example 17.16, 2-(2-(3,3-difluoropiperidin-1-yl)ethyl)-8-methyl-7-(oxazol-2-yl)-[1,2,4]triazolo[1,5-c]pyrimidin-5-amine]

IC50 [1]: 163 nM
IC50 [2]: 157 nM
Compound: Cc1c(-c2cccc(F)c2)nc(N)n2nc(CNCc3ccc(C(F)(F)F)cc3)nc12 [Example 10.5, 7-(3-fluorophenyl)-8-methyl-2-(((4-(trifluoromethyl)benzyl)amino)methyl)-[1,2,4]triazolo[1,5-c]pyrimidin-5-amine]

IC50 [1]: 156 nM
IC50 [2]: 330 nM
Compound: Cc1c(-c2ncco2)nc(N)n2nc(CNCc3ccc(C(F)(F)F)cn3)nc12 [Example 10.4, 8-methyl-7-(oxazol-2-yl)-2-((((5-(trifluoromethyl)pyridin-2-yl)methyl)amino)methyl)-[1,2,4]triazolo[1,5-c]pyrimidin-5-amine]

IC50 [1]: 1.9 nM
IC50 [2]: 243 nM
Compound: Cc1c(-c2ncco2)nc(N)n2nc(Cc3cccc(C(C)(C)O)c3)nc12 [Example 6.6, 2-(3-((5-amino-8-methyl-7-(oxazol-2-yl)-[1,2,4]triazolo[1,5-c]pyrimidin-2-yl)methyl)phenyl)propan-2-ol]

IC50 [1]: 1.2 nM
IC50 [2]: 330 nM
Compound: Cc1c(-c2ncco2)nc(N)c2nc(Cc3cccc(C(C)(C)O)c3)nn12 [Example 6.8, 2-(3-((8-amino-5-methyl-6-(oxazol-2-yl)-[1,2,4]triazolo[1,5-a]pyrazin-2-yl)methyl)phenyl)propan-2-ol]

IC50 [1]: 9.4 nM
IC50 [2]: 1430 nM
Compound: Cc1c(-c2ncco2)nc(N)n2nc(CCN3Cc4cn(CC(C)(C)O)nc4C3)nc12 [Example 17.4, 1-(5-(2-(5-amino-8-methyl-7-(oxazol-2-yl)-[1,2,4]triazolo[1,5-c]pyrimidin-2-yl)ethyl)-5,6-dihydropyrrolo[3,4-c]pyrazol-2(4H)-yl)-2-methylpropan-2-ol]

IC50 [1]: 0.4 nM
IC50 [2]: 489 nM
Compound: Cc1c(-c2ncco2)nc(N)n2nc(CN(Cc3ccc(C(C)(C)O)cc3)CC(F)F)nc12 [Example 13.1, 2-(4-((((5-amino-8-methyl-7-(oxazol-2-yl)-[1,2,4]triazolo[1,5-c]pyrimidin-2-yl)methyl)(2,2-difluoroethyl)amino)methyl)phenyl)propan-2-ol]

IC50 [1]: 5.4 nM
IC50 [2]: 744 nM
Compound: Cc1c(-c2ncco2)nc(N)n2nc(CNCc3ccc(C(C)(C)O)nc3)nc12 [Example 11.4, 2-(5-((((5-amino-8-methyl-7-(oxazol-2-yl)-[1,2,4]triazolo[1,5-c]pyrimidin-2-yl)methyl)amino)methyl)pyridin-2-yl)propan-2-ol]
